For one data set, the system named is nucleic acid. The settings on record: cited from earlier work.
In the next data set the test system is salmon sperm DNA. Kind of data set: Absorbance and fluorescence emission spectra of dyes without or with DNA in PBS buffer. In kind it is physicochemical. Conditions: for red shift of absorbance upon binding to DNA, relative to free dye: 2 mg/ml salmon sperm DNA; for red shift of absorbance upon binding to DNA, relative to free dye / spectra of the free dyes: intramolecular H-dimer (hairpin) formation: PBS buffer; for spectra of the free dyes: intramolecular H-dimer (hairpin) formation: FIG. 5. Here is the method: The spectra were normalized to 1 in the absorbance plot. […] The heterodimeric dye AORO-7 comprises a monomeric AO dye and a fluorescent non-nucleic acid rosamine RO dye. Two emission peaks, contributed by AO and RO moieties, respectively, were recorded.

The subject of the next data set is PCR reaction. Kind of data set: Real-time PCR (qPCR) amplification of ATPB fragment in pTOPO plasmid with a fluorescent monitoring dye. It is filed as biochemical. Conditions: for inhibition of PCR (Ct delay) by the dye: increasing dye concentration.
In data set [1] the test system is salmon sperm DNA or a mixture of single-stranded 20mer oligonucleotide. In words: Fluorescence of AOAO-12 in response to different amounts of DNA (microtiter plate reader). It is filed as binding. Conditions: 0.1 μM dye in PBS. Here is the method: It can be seen that fluorescence linearly responded to DNA up to 2.0 μg/ml (inset). At higher concentrations of DNA, the response became non-linear.

For data set [2], the system named is amplicons HMBS, RPL4, SDHA, TBP. Kind of data set: Melting curves of amplicons after qPCR. The settings on record: for melting peaks of the HMBS amplification reaction (primer dimer): HMBS amplicon, FIG. 15. It is filed as biochemical. Here is the method:
SYBR Green I was reported to be advantageous in that the melting temperature of an amplicon could be detected after qPCR amplification. The melting temperature provides valuable information about the amplicon, as it is a function of the size and GC content of the amplicon. No melting temperatures could be collected from TaqMan reactions. Melting curves from four amplicons, i.e., HMBS (SEQ ID NO: 4), RPL4 (SEQ ID NO: 5), SDHA (SEQ ID NO: 6), and TBP (SEQ ID NO: 7) were measured from reactions amplified in the presence of AOAO-12 (Panel A) or SYBR Green (Panel B) and are presented in FIG. 15.
It has been reported that qPCR reactions with SYBR Green I tend to form primer-dimers, and the tendency is closely related to the concentration of SYBR Green I. It has been postulated that SYBR Green I binds to DNA so tightly that it interferes with the performance of Taq DNA polymerase. As AOAO-12 has less affinity to DNA, the interference should be alleviated.
For orientation: In qPCR the cycle at which signal appears reflects the starting amount.

Data set [3] in a line: Thermo-stability of dye at 96° C. in PCR reaction buffers with PCR products. It is filed as physicochemical. The settings on record: 96° C. for 40 minutes. Here is the method:
Specifically, AOAO-12 was kept in PCR reaction buffers with PCR products. The mixture was heated to 96° C. for 40 minutes. During the heating course, the mixture was brought down to 60° C. briefly to monitor the fluorescence.

The conditions of data set [4]: stored in Tris buffer at 4° C.; cited from earlier work.

“Also recorded” adds a separate entry of the source. Bounds are passed on as bounds.

Regarding `CN(C)c1ccc2cc3ccc(N(C)C)cc3nc2c1` [AO, acridine orange], the “absorption wavelength λabs” value in the data set on nucleic acid (DNA bound) is given as 500 nm. In addition, the “affinity for nucleic acid” value in the data set on nucleic acid is on record as “very low”. In addition, the extinction coefficient in the data set on nucleic acid (in M-1·cm-1 (unit assumed)) is reported as > 50,000.
In the case of `CN(C)c1ccc2cc3ccc(N(C)C)cc3[n+](CCCCCC(=O)NCCCCCNC(=O)CCCCC[n+]3c4cc(N(C)C)ccc4cc4ccc(N(C)C)cc43)c2c1` [AOAO-7], the “red shift of absorbance upon binding to DNA, relative to free dye” value in the data set on salmon sperm DNA was 5 nm. For the same compound, the “new shorter wavelength peak in absorbance” value with salmon sperm DNA (free dye in PBS buffer, without DNA) came out at 471 nm.
Regarding `CN(C)c1ccc2cc3ccc(N(C)C)cc3[n+](CCCCCC(=O)NCCOCCNC(=O)CCCCC[n+]3c4cc(N(C)C)ccc4cc4ccc(N(C)C)cc43)c2c1` [AOAO-12], the “final fluorescence signal strength relative to SYBR Green I” value in the data set on PCR reaction (qPCR, dye at higher usable concentration) is “several folds higher; also recorded: several times higher”. Moreover, the “inhibition of PCR (Ct delay) by the dye” value in the data set with PCR reaction (qPCR) was “without exhibiting inhibition; also recorded: little or no inhibition”. In data set [1], the “DNA concentration up to which fluorescence responded linearly” value is listed as “up to 2.0 μg/ml” and the “fluorescence bound to double stranded versus single stranded DNA” value is “fluoresces more intensely when bound to double stranded DNA than when bound to single stranded DNA”. For the same compound, the “melting peaks of the HMBS amplification reaction (primer dimer)” value in data set [2] is “only a single, clean, and specific peak”. The “melting temperatures of amplicons relative to SYBR Green I” value in data set [2] (four amplicons, lower than SYBR Green I) is recorded as “about 2 degrees”. Moreover, in data set [2] (relative to SYBR Green I), the DNA binding affinity result was “binds DNA with high affinity but less tightly than SYBR Green I” and the “height of melting peaks” value is listed as “markedly higher”. Moreover, the “stability (fluorescence monitored at 60° C.)” value in data set [3] was “stable at 96 °C for 40 minutes substantially without loss of fluorescence”.
As for `CC1=CC(C)(C)Nc2cc3c(cc21)C(c1ccc(C(=O)NCCCCCC(=O)NCCCCCNC(=O)CCCCC[n+]2c4cc(N(C)C)ccc4cc4ccc(N(C)C)cc42)cc1)=c1cc2c(cc1O3)=NC(C)(C)C=C2C` [AORO-7], in the data set on salmon sperm DNA, the “absorption peak of rosamine dye component” value is 600 nm and the “emission peak of rosamine dye component” value is given as about 620 nm. In the data set with salmon sperm DNA (DNA), the “absorption peak of AO component” value was found to be 503 nm and the “emission peak of AO component” value is recorded as 523 nm.
On to `CN(C)CCC[n+]1c2cc(N(C)C)ccc2cc2ccc(N(C)C)cc21.[I-]` [DMAO], for which the “red shift of absorbance upon binding to DNA, relative to free dye” value with salmon sperm DNA was determined as 10 nm.
For `CCCN(CCCN(C)C)c1cc(/C=C2/Sc3ccccc3N2C)c2ccccc2[n+]1-c1ccccc1` [SYBR Green I, reference compound], the “inhibition of PCR (Ct delay) by the dye” value in the data set on PCR reaction (qPCR) was “exhibited inhibition to PCR reactions; also recorded: significantly inhibits PCR at higher dye concentration”. In addition, in data set [2], the “melting peaks of the HMBS amplification reaction (primer dimer)” value is on record as “has an extra primer dimer peak”. Besides, in data set [4], the “chemical stability on storage” value is on record as “decomposes significantly over the course of a few days”.
In the case of `CN1/C(=C/c2cc[n+](CCC[N+](C)(C)CCC[N+](C)(C)CCC[n+]3ccc(/C=C4\Sc5ccccc5N4C)c4ccccc43)c3ccccc23)Sc2ccccc21.[I-].[I-].[I-].[I-]` [TOTO-1, reference compound], the “inhibition of PCR (Ct delay) by the dye” value in the data set on PCR reaction (qPCR) is “completely inhibited the PCR reaction”. In the data set with salmon sperm DNA (without DNA), the “spectra of the free dyes: intramolecular H-dimer (hairpin) formation” value is reported as “has less spectral shift”.
With `C[n+]1c(C=C2C=CN(CCCCCC(=O)NCCNC(=O)CCCCCN3C=CC(=Cc4sc5ccccc5[n+]4C)c4ccccc43)c3ccccc32)sc2ccccc21` [TOTO-3], the “spectra of the free dyes: intramolecular H-dimer (hairpin) formation” value in the data set with salmon sperm DNA (without DNA) is “forms an intramolecular H-dimer, or a hairpin structure”.
For `C[n+]1c(C=C2C=CN(CCCCCC(=O)CNCCOCCNC(=O)CCCCCN3C=CC(=Cc4sc5ccccc5[n+]4C)c4ccccc43)c3ccccc32)sc2ccccc21` [TOTO-12], in the data set on PCR reaction (FIG. 11), the “Ct and fluorescence intensity in qPCR relative to TO” value is “improved Ct and improved fluorescence intensity relative to TO”.
For `CN(C)c1ccc2cc3ccc(=[N+](C)C)cc-3oc2c1.[Cl-]` [pyronin Y], in the data set with nucleic acid, the absorption maximum is 548 nm and the emission maximum was 565 nm.

Source of the values: US9580749B2, “Dyes and labeled molecules” (Biotium, Inc., priority 2005, dated 2017).
